# Experimental data from the supplement of paper PMC11061612.
# What was measured:
# Experiment in all cases: Bliss excess, mean over the matrix (fraction); higher = more synergy
# [1] = system: SNU-5 (Gastric Carcinoma)
# In short: (§1)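 Bliss excess equals the observed combination effect minus the expected value EA + EB − EA·EB, where EA and EB are the effects of each agent alone. Combination Emax is the second-highest inhibition within the matrix. Inhibition was scaled from CellTiter-Glo 2.0 luminescence, with 0 set by vehicle wells and 1 by blank wells, after 72 hours of two-drug dosing of cells plated in 1536-well plates.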
# [2] = system: Daoy (Other Solid Carcinomas)
# In short: as §1
# [3] = system: HuP-T4 (Pancreatic Carcinoma)
# In short: as §1
# [4] = system: MFE-296 (Endometrial Carcinoma)
# In short: as §1
# [5] = system: KYSE-520 (Esophageal Squamous Cell Carcinoma)
# In short: as §1
# [6] = system: Ramos-2G6-4C10 (Burkitt's Lymphoma)
# In short: as §1
# [7] = system: Hs-578-T (Breast Carcinoma)
# In short: as §1
# 42-MG-BA (Glioblastoma) = system: 42-MG-BA (Glioblastoma)
# In short: as §1
# T98G (Glioblastoma) = system: T98G (Glioblastoma)
# In short: as §1
# [8] = system: HO-1-N-1 (Oral Cavity Carcinoma)
# In short: as §1
# [9] = system: MDA-MB-361 (Breast Carcinoma)
# In short: as §1
# NOS-1 (Osteosarcoma) = system: NOS-1 (Osteosarcoma)
# In short: as §1
SMILES,Bliss excess [1],Bliss excess [2],Bliss excess [3],Bliss excess [4],Bliss excess [5],Bliss excess [6],Bliss excess [7],Bliss excess (42-MG-BA (Glioblastoma)),Bliss excess (T98G (Glioblastoma)),Bliss excess [8],Bliss excess [9],Bliss excess (NOS-1 (Osteosarcoma))
"Cc1c2c(nn1C)CSCc1cc(n(C)n1)CSc1cc(c3ccccc3c1)OCCCc1c(C(=O)O)n(C)c3c-2c(Cl)ccc13 [AZD5991] + C[C@@H](Nc1cc(F)cc(F)c1)c1cc(C(=O)N(C)C)cc2c(=O)cc(N3CCOCC3)oc12 [AZD8186] (first compound max 1 µM, 7x7, partner max 3 µM)",0.0155,0.0289,0.0505,0.0197,-0.0258,-0.0074,-0.126,-0.0084,-0.001,0.0943,-0.0102,0.023
"Cc1c2c(nn1C)CSCc1cc(n(C)n1)CSc1cc(c3ccccc3c1)OCCCc1c(C(=O)O)n(C)c3c-2c(Cl)ccc13 [AZD5991] + C[C@@H]1COCCN1C2=NC(=NC(=C2)C3(CC3)[S@](=N)(=O)C)C4=C5C=CNC5=NC=C4 [AZD6738] (first compound max 1 µM, 7x7, partner max 10 µM)",-0.0075,0.0268,0.0361,0.0723,0.0162,0.0097,-0.0254,0.041,-0.0069,-0.0134,0.0182,0.0854
"NC1(C(=O)N[C@@H](CCO)c2ccc(Cl)cc2)CCN(c2ncnc3[nH]ccc23)CC1 [Capivasertib] + CC(C)n1c(=O)n(C)c2cnc3cc(F)c(-c4ccc(OCCCN5CCCCC5)nc4)cc3c21 [AZD1390] (first compound max 10 µM, 7x7, partner max 0.3 µM)",-0.0708,-0.0281,-0.0978,-0.0695,-0.0364,-0.0205,-0.0363,-0.0608,-0.0652,0.0055,-0.0555,-0.0117
"CCN(CCO)CCCOc1ccc2c(Nc3cc(CC(=O)Nc4cccc(F)c4)[nH]n3)ncnc2c1 [AZD2811] + C[C@@H]1COCCN1C2=NC(=NC(=C2)C3(CC3)[S@](=N)(=O)C)C4=C5C=CNC5=NC=C4 [AZD6738] (first compound max 1 µM, 7x7, partner max 10 µM)",-0.0209,-0.0153,0.0305,-0.0728,-0.0323,-0.0008,-0.0811,0.037,-0.0645,-0.053,-0.0816,0.0036
"COc1cccc(OCCCN)c1-c1cc(Nc2cnc(C#N)cn2)n[nH]1 [Prexasertib] + O=C(c1cc(Cc2n[nH]c(=O)c3ccccc23)ccc1F)N1CCN(C(=O)C2CC2)CC1 [Olaparib] (first compound max 1 µM, 7x7, partner max 10 µM)",-0.0633,0.0261,-0.0834,-0.0516,-0.111,-0.0875,-0.0324,-0.0399,-0.134,0.0205,-0.0509,0.0177
"COc1nnc2ccc(N3CCC(c4ccc(OCCN5CCN(C)C(=O)[C@H]5C)cc4)CC3)nn12 [AZD5153] + CC1(C)CCC(CN2CCN(c3ccc(C(=O)NS(=O)(=O)c4ccc(NCC5CCOCC5)c([N+](=O)[O-])c4)c(Oc4cnc5[nH]ccc5c4)c3)CC2)=C(c2ccc(Cl)cc2)C1 [Venetoclax] (first compound max 1 µM, 7x7, partner max 1 µM)",-0.0754,-0.0568,-0.0457,-0.0824,-0.0444,-0.0041,-0.0614,-0.0391,-0.0115,-0.095,-0.0257,-0.0078
"NC1(C(=O)N[C@@H](CCO)c2ccc(Cl)cc2)CCN(c2ncnc3[nH]ccc23)CC1 [Capivasertib] + CC(=O)c1c(C)c2cnc(Nc3ccc(N4CCNCC4)cn3)nc2n(C2CCCC2)c1=O [Palbociclib] (first compound max 10 µM, 7x7, partner max 10 µM)",-0.0253,0.0306,-0.0118,-0.0349,-0.0342,-0.0512,0.0324,-0.0633,0.0304,0.026,-0.0161,-0.0389
"NC1(C(=O)N[C@@H](CCO)c2ccc(Cl)cc2)CCN(c2ncnc3[nH]ccc23)CC1 [Capivasertib] + COc1nnc2ccc(N3CCC(c4ccc(OCCN5CCN(C)C(=O)[C@H]5C)cc4)CC3)nn12 [AZD5153] (first compound max 10 µM, 7x7, partner max 1 µM)",0.0149,0.0494,-0.0315,0.0901,-0.0509,0.0722,0.06,0.0611,0.0908,0.0214,0.0588,0.0423
"COc1nnc2ccc(N3CCC(c4ccc(OCCN5CCN(C)C(=O)[C@H]5C)cc4)CC3)nn12 [AZD5153] + Cc1c2c(nn1C)CSCc1cc(n(C)n1)CSc1cc(c3ccccc3c1)OCCCc1c(C(=O)O)n(C)c3c-2c(Cl)ccc13 [AZD5991] (first compound max 1 µM, 7x7, partner max 1 µM)",-0.0069,-0.0133,-0.0461,0.028,-0.0457,0.0407,-0.0338,0.0576,0.0021,0.0068,-0.0406,0.0399
"COc1cccc(OCCCN)c1-c1cc(Nc2cnc(C#N)cn2)n[nH]1 [Prexasertib] + CCc1c2c(nc3ccc(O)cc13)-c1cc3c(c(=O)n1C2)COC(=O)[C@]3(O)CC [SN-38] (first compound max 1 µM, 7x7, partner max 0.3 µM)",-0.0085,0.0128,-0.0424,0.0106,0.048,0.0754,0.0856,0.0122,0.0121,-0.0054,-0.0298,0.0864
"COc1nnc2ccc(N3CCC(c4ccc(OCCN5CCN(C)C(=O)[C@H]5C)cc4)CC3)nn12 [AZD5153] + C[C@@H]1COCCN1C2=NC(=NC(=C2)C3(CC3)[S@](=N)(=O)C)C4=C5C=CNC5=NC=C4 [AZD6738] (first compound max 1 µM, 7x7, partner max 10 µM)",-0.0128,-0.0356,-0.028,0.0129,-0.0009,-0.0534,-0.0231,-0.0155,-0.0206,0.01,-0.0172,0.0006
"C[C@@H](c1ccc2nccn2c1)n1nnc2ncc(-c3cnn(C)c3)nc21 [Savolitinib] + Cc1c2c(nn1C)CSCc1cc(n(C)n1)CSc1cc(c3ccccc3c1)OCCCc1c(C(=O)O)n(C)c3c-2c(Cl)ccc13 [AZD5991] (first compound max 1 µM, 7x7, partner max 1 µM)",0.0188,-0.0141,-0.0618,-0.0228,-0.0615,0.0002,-0.0137,-0.0633,-0.021,-0.0373,-0.0841,-0.059
"CN(C)CCCOc1ccc(-c2ccc3ncc4c(c3c2)n(C2CCOCC2)c(=O)n4C)cn1 [AZD0156] + C=CCn1c(=O)c2cnc(Nc3ccc(N4CCN(C)CC4)cc3)nc2n1-c1cccc(C(C)(C)O)n1 [AZD1775] (first compound max 1 µM, partner max 1 µM)",-0.0705,-0.0151,-0.022,-0.0553,-0.0232,0.0365,-0.0457,0.0275,-0.0598,-0.012,-0.006,-0.0113
"Cc1c2c(nn1C)CSCc1cc(n(C)n1)CSc1cc(c3ccccc3c1)OCCCc1c(C(=O)O)n(C)c3c-2c(Cl)ccc13 [AZD5991] + C=CCn1c(=O)c2cnc(Nc3ccc(N4CCN(C)CC4)cc3)nc2n1-c1cccc(C(C)(C)O)n1 [AZD1775] (first compound max 1 µM, partner max 1 µM)",-0.0291,0.0375,-0.0039,-0.0025,0.0434,-0.0413,-0.0244,0.0071,-0.0198,-0.0348,-0.052,
"C=CCn1c(=O)c2cnc(Nc3ccc(N4CCN(C)CC4)cc3)nc2n1-c1cccc(C(C)(C)O)n1 [AZD1775] + C[C@@H]1COCCN1C2=NC(=NC(=C2)C3(CC3)[S@](=N)(=O)C)C4=C5C=CNC5=NC=C4 [AZD6738] (first compound max 1 µM, partner max 10 µM)",,0.0863,0.0849,0.0428,-0.003,0.0915,-0.0127,0.0384,-0.0178,0.0456,-0.0113,0.0735
"CS(=O)(=O)CCNCc1ccc(-c2ccc3ncnc(Nc4ccc(OCc5cccc(F)c5)c(Cl)c4)c3c2)o1 [Lapatinib] + NC1(c2ccc(-c3nc4ccn5c(=O)[nH]nc5c4cc3-c3ccccc3)cc2)CCC1 [MK-2206] (first compound max 10 µM, 7x7, partner max 10 µM)",0.0404,,,-0.026,,0.0215,0.0381,,0.0128,0.0213,,
"CCc1c2c(nc3ccc(O)cc13)-c1cc3c(c(=O)n1C2)COC(=O)[C@]3(O)CC [SN-38] + O=C(c1cc(Cc2n[nH]c(=O)c3ccccc23)ccc1F)N1CCN(C(=O)C2CC2)CC1 [Olaparib] (first compound max 0.3 µM, 7x7, partner max 10 µM)",,0.119,0.0913,0.0741,,0.0338,0.0807,0.0749,0.107,0.06,,-0.0251
"C[C@@H](c1ccc2nccn2c1)n1nnc2ncc(-c3cnn(C)c3)nc21 [Savolitinib] + CN(CC[C@H](CSC1=CC=CC=C1)NC2=C(C=C(C=C2)S(=O)(=O)NC(=O)C3=CC=C(C=C3)N4CCC(CC4)[C@H](C5=CC=CC=C5C6=CC=C(C=C6)Cl)O)S(=O)(=O)C(F)(F)F)CCO [AZD4320] (first compound max 1 µM, 7x7, partner max 1 µM)",0.029,-0.0547,-0.0544,-0.0181,-0.0298,,,-0.0553,,,-0.0425,-0.0137
"COc1nnc2ccc(N3CCC(c4ccc(OCCN5CCN(C)C(=O)[C@H]5C)cc4)CC3)nn12 [AZD5153] + CN(CC[C@H](CSC1=CC=CC=C1)NC2=C(C=C(C=C2)S(=O)(=O)NC(=O)C3=CC=C(C=C3)N4CCC(CC4)[C@H](C5=CC=CC=C5C6=CC=C(C=C6)Cl)O)S(=O)(=O)C(F)(F)F)CCO [AZD4320] (first compound max 1 µM, 7x7, partner max 1 µM)",0.0566,0.113,0.0267,0.0104,0.023,,,0.101,,,0.0967,0.044
